Assay results reported in the supplement of paper PMC11208160.

Experiment: recombinant UMI read abundance after kanamycin selection (control-corrected) (log10(CPM+1)); higher = more efficient recombination; extreme values may be limits of the assay; sequences stand for … in AGTGCAGAGAAAATCGGCCAGTTTTCTCTGCCTGCAGTCCGCATGCCGTGGGACCCCTTGGGTTCTAACCTGTTGCCTAGATTTATGCAGCGGACTGCCTTTCTCCCAAAGTGATAAACCGG…AGGTTGGTTTCACT; site = the 11-nt donor
Method in brief: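 For the IS621 bridge recombinase, a pooled Escherichia coli screen tested donor and donor-binding-loop pairs. Cells received the pair library together with a target plasmid encoding a fixed target and T7-inducible recombinase, then went onto IPTG (0.07 mM) plus kanamycin or unselected plates in duplicate. After PCR across the donor–target junction and sequencing, recombinant UMI counts were normalized to CPM, averaged, and scaled by control-derived factors. Each value is given as log10(CPM+1).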
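Note: IS621 bridge recombinase in Escherichia coli cells against a fixed T5 target plasmid.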

Sequence	recombinant UMI read abundance (log10)
TCGGTTGCATGGACCGGTTTTCCCGGTAATCCGTATTTGGC (site TCGGTTGCTGC)	0.849
TCGTTTCCATGGACCGGTTTTCCCGGTAATCCGTATTTGTA (site TCGTTTCCTTA)	1.36
TCTAACCCATGGACCGGTTTTCCCGGTAATCCGTATTTGCA (site TCTAACCCTTG)	0
TCTACACCATGGACCGGTTTTCCCGGTAATCCGTATTTGAC (site TATACACCTGT)	0.00982
TCTACACCATGGACCGGTTTTCCCGGTAATCCGTATTTGAC (site TCTACACCTGT)	0
TCTACACCATGGACCGGTTTTCCCGGTAATCCGTATTTGAC (site TGTACACCTGT)	0
TCTACACCATGGACCGGTTTTCCCGGTAATCCGTATTTGAC (site TTTACACCTGT)	0
TCTACGTCATGGACCGGTTTTCCCGGTAATCCGTATTTGTC (site TCTACGTCTGA)	0
TCTACTGCATGGACCGGTTTTCCCGGTAATCCGTATTTGCC (site ACTACTGCTGG)	0
TCTACTGCATGGACCGGTTTTCCCGGTAATCCGTATTTGCC (site CCTACTGCTGG)	0
TCTACTGCATGGACCGGTTTTCCCGGTAATCCGTATTTGCC (site GCTACTGCTGG)	0
TCTACTGCATGGACCGGTTTTCCCGGTAATCCGTATTTGCC (site TCTACTGCTGG)	0
TCTAGATCATGGACCGGTTTTCCCGGTAATCCGTATTTGCA (site TCTAGATCTTG)	0
TCTAGGTCATGGACCGGTTTTCCCGGTAATCCGTATTTGTT (site TCTAGGTCTAA)	0
TCTAGTTCATGGACCGGTTTTCCCGGTAATCCGTATTTGTG (site TCTAGTTCTCA)	0.0111
TCTATAACATGGACCGGTTTTCCCGGTAATCCGTATTTGCT (site TCTATAACTAG)	0
TCTGAGCCATGGACCGGTTTTCCCGGTAATCCGTATTTGAT (site TCTGAGCCTAT)	0.00231
TCTGAGCCATGGACCGGTTTTCCCGGTAATCCGTATTTGTT (site TCTGAGCCTAA)	0.0283
TCTGCGGCATGGACCGGTTTTCCCGGTAATCCGTATTTGCT (site TATGCGGCTAG)	0.0269
TCTGCGGCATGGACCGGTTTTCCCGGTAATCCGTATTTGCT (site TCTGCGGCTAG)	0.246
TCTGCGGCATGGACCGGTTTTCCCGGTAATCCGTATTTGCT (site TGTGCGGCTAG)	0.0168
TCTGCGGCATGGACCGGTTTTCCCGGTAATCCGTATTTGCT (site TTTGCGGCTAG)	0.0104
TCTGCTACATGGACCGGTTTTCCCGGTAATCCGTATTTGGT (site TCTGCTACTAC)	0.0161
TCTGTGGCATGGACCGGTTTTCCCGGTAATCCGTATTTGCC (site TCTGTGGCTGG)	0
TCTTAACCATGGACCGGTTTTCCCGGTAATCCGTATTTGTG (site TCTTAACCTCA)	0.0128

Sequence	recombinant UMI read abundance (log10)
TCTTACCCATGGACCGGTTTTCCCGGTAATCCGTATTTGCA (site TCTTACCCTTG)	0
TCTTACGCATGGACCGGTTTTCCCGGTAATCCGTATTTGGC (site TCTTACGCTGC)	0
TCTTCAACATGGACCGGTTTTCCCGGTAATCCGTATTTGTG (site TCTTCAACTCA)	0.0171
TCTTCTACATGGACCGGTTTTCCCGGTAATCCGTATTTGAC (site TCTTCTACTGT)	0
TCTTCTGCATGGACCGGTTTTCCCGGTAATCCGTATTTGAT (site TCTTCTGCTAT)	0
TCTTTACCATGGACCGGTTTTCCCGGTAATCCGTATTTGGG (site TCTTTACCTCC)	0.0231
TCTTTACCATGGACCGGTTTTCCCGGTAATCCGTATTTGTA (site TCTTTACCTTA)	0.00582
TCTTTGGCATGGACCGGTTTTCCCGGTAATCCGTATTTGTG (site TATTTGGCTCA)	0.0246
TCTTTGGCATGGACCGGTTTTCCCGGTAATCCGTATTTGTG (site TCTTTGGCTCA)	0.0151
TCTTTGGCATGGACCGGTTTTCCCGGTAATCCGTATTTGTG (site TGTTTGGCTCA)	0.0149
TCTTTGGCATGGACCGGTTTTCCCGGTAATCCGTATTTGTG (site TTTTTGGCTCA)	0.0253
TGAAAATCATGGACCGGTTTTCCCGGTAATCCGTATTTGAT (site TGAAAATCTAT)	0
TGAAAGACATGGACCGGTTTTCCCGGTAATCCGTATTTGCA (site AGGAAGACTTG)	2.91
TGAAAGACATGGACCGGTTTTCCCGGTAATCCGTATTTGCA (site TGAAAGACTTG)	2.45
TGAACACCATGGACCGGTTTTCCCGGTAATCCGTATTTGAC (site TGAACACCTGT)	0
TGAACACCATGGACCGGTTTTCCCGGTAATCCGTATTTGAC (site TGCACACCTGT)	0
TGAACACCATGGACCGGTTTTCCCGGTAATCCGTATTTGAC (site TGGACACCTGT)	0
TGAACACCATGGACCGGTTTTCCCGGTAATCCGTATTTGAC (site TGTACACCTGT)	0
TGAAGAGCATGGACCGGTTTTCCCGGTAATCCGTATTTGCA (site TGAAGAGCTTG)	2.54
TGAAGCGCATGGACCGGTTTTCCCGGTAATCCGTATTTGCT (site TGAAGCGCTAG)	2.01
TGAATACCATGGACCGGTTTTCCCGGTAATCCGTATTTGTG (site TGAATACCTCA)	0.0076
TGACATTCATGGACCGGTTTTCCCGGTAATCCGTATTTGCT (site TGACATTCTAG)	1.97
TGACCTCCATGGACCGGTTTTCCCGGTAATCCGTATTTGAA (site TGACCTCCTTT)	0.019
TGACTATCATGGACCGGTTTTCCCGGTAATCCGTATTTGTA (site TGACTATCTTA)	2.58
TGACTCACATGGACCGGTTTTCCCGGTAATCCGTATTTGAC (site TGACTCACTGT)	2.68

Sequence	recombinant UMI read abundance (log10)
TGAGAGGCATGGACCGGTTTTCCCGGTAATCCGTATTTGTA (site TGAGAGGCTTA)	2.3
TGAGATACATGGACCGGTTTTCCCGGTAATCCGTATTTGAG (site TGAGATACTCT)	2.26
TGAGGACCATGGACCGGTTTTCCCGGTAATCCGTATTTGCA (site TGAGGACCTTG)	0
TGAGTTTCATGGACCGGTTTTCCCGGTAATCCGTATTTGAG (site TGAGTTTCTCT)	1.89
TGATAGACATGGACCGGTTTTCCCGGTAATCCGTATTTGGA (site TGATAGACTTC)	0.865
TGATCAACATGGACCGGTTTTCCCGGTAATCCGTATTTGCT (site CGATCATCTAG)	0
TGATCAACATGGACCGGTTTTCCCGGTAATCCGTATTTGCT (site TGATCAACTAG)	0.879
TGATCATCATGGACCGGTTTTCCCGGTAATCCGTATTTGCT (site AGATCATCTAG)	1.56
TGATCATCATGGACCGGTTTTCCCGGTAATCCGTATTTGCT (site CGATCATCTAG)	1.63
TGATCATCATGGACCGGTTTTCCCGGTAATCCGTATTTGCT (site GGATCATCTAG)	1.02
TGATCATCATGGACCGGTTTTCCCGGTAATCCGTATTTGCT (site TGATCATCTAG)	0.945
TGATCCCCATGGACCGGTTTTCCCGGTAATCCGTATTTGTA (site TGATCCCCTTA)	0.674
TGATCCCCATGGACCGGTTTTCCCGGTAATCCGTATTTGTA (site TGCTCCCCTTA)	0.195
TGATCCCCATGGACCGGTTTTCCCGGTAATCCGTATTTGTA (site TGGTCCCCTTA)	0.00213
TGATCCCCATGGACCGGTTTTCCCGGTAATCCGTATTTGTA (site TGTTCCCCTTA)	0.28
TGATCCGCATGGACCGGTTTTCCCGGTAATCCGTATTTGCC (site TGATCCGCTGG)	1.55
TGCAAACCATGGACCGGTTTTCCCGGTAATCCGTATTTGGG (site TGCAAACCTCC)	0.00989
TGCAATCCATGGACCGGTTTTCCCGGTAATCCGTATTTGAA (site AGCAATCCTTT)	0.00584
TGCAATCCATGGACCGGTTTTCCCGGTAATCCGTATTTGAA (site CGCAATCCTTT)	0.257
TGCAATCCATGGACCGGTTTTCCCGGTAATCCGTATTTGAA (site GGCAATCCTTT)	0.0354
TGCAATCCATGGACCGGTTTTCCCGGTAATCCGTATTTGAA (site TGCAATCCTTT)	1.16
TGCACATCATGGACCGGTTTTCCCGGTAATCCGTATTTGCC (site TGCACATCTGG)	0.35
TGCACCGCATGGACCGGTTTTCCCGGTAATCCGTATTTGCG (site TACACCGCTCG)	0.0133
TGCACCGCATGGACCGGTTTTCCCGGTAATCCGTATTTGCG (site TCCACCGCTCG)	0.0173
TGCACCGCATGGACCGGTTTTCCCGGTAATCCGTATTTGCG (site TGCACCGCTCG)	0.0216
